Experimental data taken from PMC4102417 (PLoS Neglected Tropical Diseases, 2014).
Counter-ions that a name gives are not always drawn. Like-named read-outs stand apart in the source and are kept apart here.

Tests used:
[1] = test system: T. cruzi (Tulahuen strain); assay: microbe, parasite or virus in culture; type: cell-based, Trypanosoma cruzi; conditions: for activity at 10 µM / EC50: Trypanosoma cruzi, TULAHUEN, Fibroblast; for activity at 10 µM: 120 h, read-out: T. cruzi % growth @ 10 uM (Amastigotes)
Description: Compounds were tested against T. cruzi (Tulahuen strain) stably expressing the beta-galactosidase gene as previously described. […] Fibroblasts were plated at a density of 2×10^3 per well in 96 well tissue culture plates. After 24 hours of incubation, 1×10^4 trypomastigotes/well were added to the fibroblasts and incubated for 4 hours before addition of the test compounds from the Spectrum Collection (10 µM final concentration). Cultures were incubated at 37°C for 5 days, then developed with chlorophenol red β-D-galactopyranoside as previously described. The percent inhibition is reported with standard deviation of the mean. […] Z-prime values were calculated for each 96-well plate based on positive (4 wells) and negative controls (4 wells).

3T3 fibroblast cells = assay: cells; type: cell-based, murine; conditions: for activity at 10 µM: Mus musculus, NIH3T3, 72 h, read-out: Mammalian (3T3) cell % growth at 10 uM
[2] = Table S2, amastigotes, read-out: T. cruzi EC50

Compound: CN1CCC(=C2c3ccccc3CCc3sccc32)CC1 [PIZOTYLINE MALATE, 1-methyl-4-{6-thiatricyclo[8.4.0.0^{3,7}]tetradeca-1(14),3(7),4,10,12-pentaen-2-ylidene}piperidine; 2-hydroxybutanedioic acid]
- activity at 10 µM ([1]; 10 uM, Table S2): 21.4%
- activity at 10 µM (3T3 fibroblast cells; 10 uM, Table S2): 86.5%

Compound: COc1c2c(cc3occ(-c4ccc5c(c4)OCO5)c(=O)c13)OC(C)(C)C=C2 [METHYL ROBUSTONE, 3-(2H-1,3-benzodioxol-5-yl)-5-methoxy-8,8-dimethyl-4H,8H-pyrano[3,2-g]chromen-4-one]
- activity at 10 µM ([1]; 10 uM, Table S2): 2.5%
- activity at 10 µM (3T3 fibroblast cells; 10 uM, Table S2): 68.2%

Compound: Clc1ccc(COC(Cn2ccnc2)c2ccc(Cl)cc2Cl)c(Cl)c1 (stereo not shown) [Miconazole, 1-[2-(2,4-dichlorophenyl)-2-[(2,4-dichlorophenyl)methoxy]ethyl]-1H-imidazole]
- activity at 10 µM ([1]; 10 uM, Table S2): 0.4%
- activity at 10 µM (3T3 fibroblast cells; 10 uM, Table S2): 100%

Compound: NCC(=O)c1ccccc1 [PHENACYLAMINE, 2-amino-1-phenylethan-1-one hydrochloride]
- activity at 10 µM ([1]; 10 uM, Table S2): 4.8%
- activity at 10 µM (3T3 fibroblast cells; 10 uM, Table S2): 85.5%

Compound: CC(C)c1ccc2c(c1O)CCC1C3=C(CCC21C)C(=O)OC3 (stereo not shown) [TRIPTOPHENOLIDE, 6-hydroxy-1-methyl-5-(propan-2-yl)-13-oxatetracyclo[8.7.0.0^{2,7}.0^{11,15}]heptadeca-2,4,6,11(15)-tetraen-14-one]
- activity at 10 µM ([1]; 10 uM, Table S2): 13.8%
- activity at 10 µM (3T3 fibroblast cells; 10 uM, Table S2): 83.1%

Compound: CC(Cc1cccc(C(F)(F)F)c1)NCCOC(=O)c1ccccc1 (stereo not shown) [BENFLUOREX, 2-({1-[3-(trifluoromethyl)phenyl]propan-2-yl}amino)ethyl benzoate]
- activity at 10 µM ([1]; 10 uM, Table S2): 21.6%
- activity at 10 µM (3T3 fibroblast cells; 10 uM, Table S2): 96.6%

Compound: C[C@@H]1CC[C@@]23CCC4(C)[C@@](C=CC5[C@@]6(C)CCC(=O)C(C)(C)C6CC[C@]54C)(OC2=O)C3[C@H]1C (stereo partly shown) [3-OXOURSAN (28-13)OLIDE]
- activity at 10 µM ([1]; 10 uM, Table S2): 11.1%
- activity at 10 µM (3T3 fibroblast cells; 10 uM, Table S2): 100%

Compound: CNc1ccc(C(=O)CC(O)CCC(C)C2OC(=O)CC(O)CC(=O)CC(O)CC(O)CC(O)CC(O)CC3(O)CC(O)C(C(=O)OC)C(CC(O[C@@H]4O[C@H](C)[C@@H](O)[C@H](N)[C@@H]4O)/C=C/C=C/C=C/C=C\C=C/C=C/C=C/C2C)O3)cc1 (stereo partly drawn) [MEPARTRICIN, methyl (19E,21E,23Z,25Z,27E,29E,31E)-33-{[(2R,3S,4S,5S,6R)-4-amino-3,5-dihydroxy-6-methyloxan-2-yl]oxy}-1,3,5,7,9,13,37-heptahydroxy-17-{5-hydroxy-7-[4-(methylamino)phenyl]-7-oxoheptan-2-yl}-18-methyl-11,15-dioxo-16,39-dioxabicyclo[33.3.1]nonatriaconta-19,21,23,25,27,29,31-heptaene-36-carboxylate]
- activity at 10 µM ([1]; 10 uM, Table S2): 2.6%
- activity at 10 µM (3T3 fibroblast cells; 10 uM, Table S2): 97.3%

Compound: COc1ccc(-c2cc(=O)c3ccccc3o2)cc1OC [3',4'-DIMETHOXYFLAVONE, 2-(3,4-dimethoxyphenyl)-4H-chromen-4-one]
- activity at 10 µM ([1]; 10 uM, Table S2): 24%
- activity at 10 µM (3T3 fibroblast cells; 10 uM, Table S2): 86.4%

Compound: C=C1C2CCC3(C)C(c4ccoc4)OC(=O)CC13OC1CC(OC(C)=O)C(C)(C)C(CC(=O)OC)C12C (stereo not shown) [methyl 2-[5-(acetyloxy)-13-(furan-3-yl)-6,6,8,12-tetramethyl-17-methylidene-15-oxo-2,14-dioxatetracyclo[7.7.1.0^{1,12}.0^{3,8}]heptadecan-7-yl]acetate]
- activity at 10 µM ([1]; 10 uM, Table S2): 1%
- activity at 10 µM (3T3 fibroblast cells; 10 uM, Table S2): 84.1%

Compound: CSc1ccc2c(c1)C(N1CCN(C)CC1)Cc1ccccc1S2 (stereo not shown) [METHIOTHEPIN, (2Z)-but-2-enedioic acid; 1-methyl-4-[6-(methylsulfanyl)-2-thiatricyclo[9.4.0.0^{3,8}]pentadeca-1(15),3,5,7,11,13-hexaen-9-yl]piperazine]
- activity at 10 µM ([1]; 10 uM, Table S2): 4.4%
- activity at 10 µM (3T3 fibroblast cells; 10 uM, Table S2): 69.6%

Compound: CCN(CCO)CCCC(C)Nc1ccnc2cc(Cl)ccc12 (stereo not shown) [HYDROXYCHLOROQUINE SULFATE, 2-({4-[(7-chloroquinolin-4-yl)amino]pentyl}(ethyl)amino)ethan-1-ol; sulfuric acid]
- activity at 10 µM ([1]; 10 uM, Table S1): 0.1%
- EC50 [1, 2]: 4640 nM
- activity at 10 µM (3T3 fibroblast cells; 10 uM, Table S1): 100%

Compound: CC(CC(O)C1OC1(C)C)C1CCC2(C)C3=CCC4C(C)(C)C(=O)CCC4(C)C3CCC12C (stereo not shown) [NILOTICIN, 14-[4-(3,3-dimethyloxiran-2-yl)-4-hydroxybutan-2-yl]-2,6,6,11,15-pentamethyltetracyclo[8.7.0.0^{2,7}.0^{11,15}]heptadec-9-en-5-one]
- activity at 10 µM ([1]; 10 uM, Table S2): 2.2%
- activity at 10 µM (3T3 fibroblast cells; 10 uM, Table S2): 100%

Compound: C=CC(C1=CC(=O)C=CC1=O)c1ccccc1 (stereo not shown) [DALBERGIONE, 2-(1-phenylprop-2-en-1-yl)cyclohexa-2,5-diene-1,4-dione]
- activity at 10 µM ([1]; 10 uM, Table S2): 12.4%
- activity at 10 µM (3T3 fibroblast cells; 10 uM, Table S2): 97.5%

Compound: COc1c(-c2coc3cc4c(cc3c2=O)CC(OC(C)=O)C(C)(C)O4)ccc2c1C=CC(C)(C)O2 (stereo not shown) [MUNDULONE ACETATE]
- activity at 10 µM ([1]; 10 uM, Table S2): 4.6%
- activity at 10 µM (3T3 fibroblast cells; 10 uM, Table S2): 76%

Compound: O=C(/C=C(/O)c1ccccc1)c1ccccc1O [2',beta-DIHYDROXYCHALCONE, (2E)-3-hydroxy-1-(2-hydroxyphenyl)-3-phenylprop-2-en-1-one]
- activity at 10 µM ([1]; 10 uM, Table S2): 10%
- activity at 10 µM (3T3 fibroblast cells; 10 uM, Table S2): 100%

Compound: COc1ccc2c(c1)OC/C(=C/c1ccc(OC)c(OC)c1)C2=O [SAPPANONE A TRIMETHYL ETHER]
- activity at 10 µM ([1]; 10 uM, Table S2): 7.5%
- activity at 10 µM (3T3 fibroblast cells; 10 uM, Table S2): 74.6%

Compound: CC(=O)OC1(C(C)=O)CCC2C3C=C(Cl)C4=CC(=O)CCC4(C)C3CCC21C (stereo not shown) [CHLORMADINONE ACETATE, 14-acetyl-8-chloro-2,15-dimethyl-5-oxotetracyclo[8.7.0.0^{2,7}.0^{11,15}]heptadeca-6,8-dien-14-yl acetate]
- activity at 10 µM ([1]; 10 uM, Table S2): 9.7%
- activity at 10 µM (3T3 fibroblast cells; 10 uM, Table S2): 97.4%

Compound: CC(=O)OC1c2c(ccc3ccc(=O)oc23)OC(C)(C)C1OC(=O)CC(C)C (stereo not shown) [DIHYDROSAMIDIN, 14-(acetyloxy)-12,12-dimethyl-4-oxo-3,11-dioxatricyclo[8.4.0.0^{2,7}]tetradeca-1(10),2(7),5,8-tetraen-13-yl 3-methylbutanoate]
- activity at 10 µM ([1]; 10 uM, Table S2): 10.9%
- activity at 10 µM (3T3 fibroblast cells; 10 uM, Table S2): 81.2%

Compound: CC(=O)OC1CCC2(C)C3=C(CCC2C1(C)C)C1(C)CCC(C(C)CCC=C(C)C)C1(C)CC3 (stereo not shown) [EUPHOL ACETATE, 2,6,6,11,15-pentamethyl-14-(6-methylhept-5-en-2-yl)tetracyclo[8.7.0.0^{2,7}.0^{11,15}]heptadec-1(10)-en-5-yl acetate]
- activity at 10 µM ([1]; 10 uM, Table S2): 12%
- activity at 10 µM (3T3 fibroblast cells; 10 uM, Table S2): 87.6%

Compound: Clc1ccc2c(c1)C(N1CCNCC1)=Nc1ccccc1O2 [AMOXAPINE, 13-chloro-10-(piperazin-1-yl)-2-oxa-9-azatricyclo[9.4.0.0^{3,8}]pentadeca-1(15),3,5,7,9,11,13-heptaene]
- activity at 10 µM ([1]; 10 uM, Table S2): 11.7%
- activity at 10 µM (3T3 fibroblast cells; 10 uM, Table S2): 98%

Compound: CNCCC=C1c2ccccc2CCc2ccccc21 [NORTRIPTYLINE, methyl(3-{tricyclo[9.4.0.0^{3,8}]pentadeca-1(15),3,5,7,11,13-hexaen-2-ylidene}propyl)amine]
- activity at 10 µM [1]: 9.7%
- EC50 ([1]; read-out: T. cruzi EC50 (nM)): 5180 nM
- activity at 10 µM (3T3 fibroblast cells): 100%

Compound: O=c1[nH]c(=O)n(C2CC(O)C(CO)O2)cc1F (stereo not shown) [FLOXURIDINE, 5-fluoro-1-[4-hydroxy-5-(hydroxymethyl)oxolan-2-yl]-1,2,3,4-tetrahydropyrimidine-2,4-dione]
- activity at 10 µM ([1]; 10 uM, Table S2): 2.6%
- activity at 10 µM (3T3 fibroblast cells; 10 uM, Table S2): 86.2%

Compound: CC(C)=CCc1c(O)cc2occ(-c3ccc4c(c3)OCO4)c(=O)c2c1O [DERRUBONE]
- activity at 10 µM ([1]; 10 uM, Table S2): 22.8%
- activity at 10 µM (3T3 fibroblast cells; 10 uM, Table S2): 75.4%

Compound: CC1C=CC=CC=CC=CC=CC=CC=CC(OC2OC(C)C(O)C(N)C2O)CC2OC(O)(CC(O)CC(O)C(O)CCC(O)CC(O)CC(=O)OC(C)C(C)C1O)CC(O)C2C(=O)O (stereo not shown) [AMPHOTERICIN B, 33-[(4-amino-3,5-dihydroxy-6-methyloxan-2-yl)oxy]-1,3,5,6,9,11,17,37-octahydroxy-15,16,18-trimethyl-13-oxo-14,39-dioxabicyclo[33.3.1]nonatriaconta-19,21,23,25,27,29,31-heptaene-36-carboxylic acid]
- activity at 10 µM ([1]; 10 uM, Table S2): 20.6%
- EC50 [1, 2]: 0.04 nM
- EC50 ([1]; read-out: T. cruzi EC50): 40 nM
- activity at 10 µM (3T3 fibroblast cells; 10 uM, Table S2): 89.7%

Compound: CC(=O)O[C@@H]1CC2C(C)(C)C(=O)CC[C@]2(C)C2CC[C@]3(C)C(=CC(=O)O[C@H]3c3ccoc3)[C@@]21C (stereo partly shown) [DIHYDRODEOXYGEDUNIN]
- T. cruzi % growth @ 10 uM (Amastigotes) ([1]; 10 uM, Table S2): 23.4%
- Mammalian (3T3) cell % growth at 10 uM (3T3 fibroblast cells; 10 uM, Table S2): 83.8%

Compound: c1ccc(-c2ccc(C(c3ccccc3)n3ccnc3)cc2)cc1 (stereo not shown) [BIFONAZOLE, 1-[phenyl(4-phenylphenyl)methyl]-1H-imidazole]
- activity at 10 µM ([1]; 10 uM, Table S2): 0.7%
- activity at 10 µM (3T3 fibroblast cells; 10 uM, Table S2): 93.6%

Compound: CC1(C)C2CC(=O)O[C@@]3(C)C4=CC(=O)O[C@@H](c5ccoc5)[C@]4(C)CCC3[C@@]2(C)C=C[C@H]1O (stereo partly shown) [DEOX[…]]
- activity at 10 µM ([1]; 10 uM, Table S2): 13.2%
- activity at 10 µM (3T3 fibroblast cells; 10 uM, Table S2): 82.7%

Compound: CC(=O)O[C@@H]1CC2C(C)(C)[C@H](O)CC[C@]2(C)C2CC[C@@]3(C)[C@H](c4ccoc4)OC(=O)C4OC43[C@@]21C (stereo partly drawn) [alpha-DIHYDROGEDUNOL]
- T. cruzi % growth @ 10 uM (Amastigotes) ([1]; 10 uM, Table S2): 3.8%
- Mammalian (3T3) cell % growth at 10 uM (3T3 fibroblast cells; 10 uM, Table S2): 90.8%

Compound: CC(C)COCC(CN(Cc1ccccc1)c1ccccc1)N1CCCC1 (stereo not shown) [BEPRIDIL, N-benzyl-N-[3-(2-methylpropoxy)-2-(pyrrolidin-1-yl)propyl]aniline hydrochloride]
- activity at 10 µM ([1]; 10 uM, Table S2): 24.4%
- activity at 10 µM (3T3 fibroblast cells; 10 uM, Table S2): 89.6%
